Results taken from patent US10138232B2, “Naphthyridinedione derivatives” (NOVARTIS AG, priority 2014, dated 2018).

Test system: CFTR-Y122X (GFP-CFTR-Y122X-Renilla construct) in Hek293 cell lines
Assay: CFTR-Y122X assay (dual reporter readthrough, Renilla luminescence)
Format: cell-based
Settings: Homo sapiens; for AC50: nonsense mutation suppression in the CFTR-Y122X assay; for AC50 / Emax: compounds incubated 24 h, tested up to 100 μM; for Emax: nonsense mutation suppression, 100% activity = 14 mM paromomycin, read-out: Amax
Description: In particular, compounds of formula (I), (I′), (Ia), (Ia′) or (Ib) I act as nonsense mutation suppressors on frequent PTCs, e.g. on Y122X in the mRNA of the cystic fibrosis conductance regulator protein (CFTR). This can be determined in vitro, for example, using cell lines expressing GFP-CFTR-Y122X-Renilla constructs as described herein.
Activity of compounds of the present invention was examined in recombinant, dual reporter isogenic Hek293 cell lines (“CFTR-Y122X assay”). The engineered reporter constructs contained the 18 bp sequence strech corresponding to a common Y122X PTC mutation in CFTR class I mutant patients (see Sermet-Gaudelus, BMC Medicine, 2007, 5(5)). Instead of a tyrosine (Y) in position 122 of the CFTR protein a TGA stop codon interrupts the open reading frame (Y122X) of the corresponding mRNA. This TGA stop codon triplet (followed by the pyrimidine base cytosine) is permissive to aminoglycoside mediated translational readthrough which served as positive control for high throughput screening. A corresponding TAA stop codon variant and a wildtype non mutated construct was used for confirmation and counter screening. The CFTR sequence was sandwiched between an eGFP reporter, and a triple myc tag sequence fused to a full length Renilla reporter. All sequences, including an intron containing one positioned pre-eGFP (b-globin intron) were cloned in frame. The corresponding expression constructs were stably expressed in the isogenic HEK-R4 cell host (Invitrogen Incorp.) and selected by blasticidin resistance. The isogenic integration of the construct minimizes gene dose effects and improves assay reproducibility. Stably integrated single cell derived clones were selected and characterized for aminoglycoside mediated readthrough. […] Readthrough of Y122X accumulates an intracellular localized fusion protein approximately 65.5 kDa in size as controlled by western blot analysis and immunofluorescence using an anti-renilla antibody. The eGFP reporter pre-PTC mutation serves as visual control for genetic stability of the screening clones and minimizes protein degradation of small fusion protein amounts. In the assay, compound concentration was 10 μM. In miniaturized 1536 well format 2000 cells were dispensed in 4 μl/well and incubated for 24 h at 37° C., 5% CO2. 40 nl compounds were placed on the cells with control wells containing 1 ul Paramomycin and 14.4 mM final concentration. Compounds were incubated for 24 h. Renilla Glo substrate (2.5 ul) was added and plates were centrifuged and processed for luminescence measurement using various readers. Activity calculation was done using the equation: A1(%)=100*(S−NC)/(AC−NC) where AC, NC and S correspond to active controls (injection of Stimulation buffer=100% stimulation), neutral controls (buffer injection which Iloprost EC10) and screening samples (S). NC corresponds to 0% activity whereas AC is 100% activity (14 mM paromomycin). False positive artefacts were removed in confirmation and validation screening using the same assay format followed by counterscreening using the respective wildtype construct (w/o PTC mutation) cell model. Compounds were tested up to 100 μM compound concentration.

Q: Which AC50 does the source give for `Cc1cc2c(=O)c3c(=O)n(-c4ccccc4)c(C4CCC4)cc3[nH]c2s1` [Example 1.33, 7-cyclobutyl-2-methyl-6-phenylthieno[2,3-b][1,6]naphthyridine-4,5(6H,9H)-dione] here?
A: 19.4 µM

Q: And the Emax?
A: 243%

Q: What does the source list for `COc1cccc2c(=O)c3c(=O)n(-c4ccccc4)c(C4CCC4)cc3n(C)c12` [Example 1.46, 3-cyclobutyl-6-methoxy-5-methyl-2-phenylbenzo[b][1,6]naphthyridine-1,10(2H,5H)-dione]?
A: AC50: 3.4 µM; Emax: 247%

Q: For `O=c1c2ccccc2[nH]c2cc(C3CCC3)n(N3CCCC3)c(=O)c12` [Example 2.7, 3-cyclobutyl-2-(pyrrolidin-1-yl)benzo[b][1,6]naphthyridine-1,10(2H,5H)-dione], which AC50 is on record?
A: 0.7 µM

Q: And the Emax?
A: 197%

Q: With `O=c1c2cc(F)ccc2[nH]c2cc(C3CCC3)n(-c3ccccc3)c(=O)c12` [Example 1.44, 3-cyclobutyl-8-fluoro-2-phenylbenzo[b][1,6]naphthyridine-1,10(2H,5H)-dione] as the compound, how does the AC50 read?
A: 0.4 µM

Q: And the Emax?
A: 178%

Q: With `Cc1[nH]c2cc(C3CCC3)n(-c3ccccc3)c(=O)c2c(=O)c1C` [Example 1.27, 7-cyclobutyl-2,3-dimethyl-6-phenyl-1,6-naphthyridine-4,5(1H,6H)-dione] as the compound, how does the AC50 read?
A: 3 µM

Q: And the Emax?
A: 206%

Q: What does the source list for `Cc1ccc2[nH]c3cc(C(C)C)n(-c4ccccc4)c(=O)c3c(=O)c2c1` [Example 1.9, 3-isopropyl-8-methyl-2-phenylbenzo[b][1,6]naphthyridine-1,10(2H,5H)-dione]?
A: AC50: 1.2 µM; Emax: 249%

Q: With `O=c1c2cccc3c2n(c2cc(C4CCC4)n(-c4ccccc4)c(=O)c12)CC3` [Example 1.45, 9-cyclobutyl-8-phenyl-1H-indolo[1,7-ab][1,6]naphthyridine-6,7(2H,8H)-dione] as the compound, how does the AC50 read?
A: 0.6 µM

Q: What about the Emax of the same compound?
A: 252%

Q: For `CC(C)c1cc2[nH]c3ccc(Cl)cc3c(=O)c2c(=O)n1-c1ccccc1` [Example 1.7, 8-chloro-3-isopropyl-2-phenylbenzo[b][1,6]naphthyridine-1,10(2H,5H)-dione], which AC50 is on record?
A: 2.4 µM

Q: And the Emax?
A: 215%

Q: `O=c1c2cc(Cl)ccc2[nH]c2cc(C3CCC3)n(-c3ccccc3)c(=O)c12` [Example 1.40, 8-chloro-3-cyclobutyl-2-phenylbenzo[b][1,6]naphthyridine-1,10(2H,5H)-dione] was tested. Which AC50 did it give?
A: 1 µM

Q: And the Emax?
A: 300%

Q: Which results are given for `CC(C)c1cc2c(c(=O)c3ccccc3n2C)c(=O)n1-n1cccc1` [Example 2.18, 3-isopropyl-5-methyl-2-(1H-pyrrol-1-yl)benzo[b][1,6]naphthyridine-1,10(2H,5H)-dione]?
A: AC50: 17.6 µM; Emax: 75%

Q: How did the AC50 turn out when `CC(C)c1c(Cl)c2c(c(=O)c3ccccc3n2C)c(=O)n1-c1ccccc1` [Example 3.2, 4-chloro-3-isopropyl-5-methyl-2-phenylbenzo[b][1,6]naphthyridine-1,10(2H,5H)-dione] was run?
A: 17.2 µM

Q: And the Emax?
A: 220%

Q: With `Cn1c2c(c(=O)c3c(=O)n(-c4ccccc4)c(C4CCC4)cc31)CCC2` [Example 1.24, 3-cyclobutyl-5-methyl-2-phenyl-5,6,7,8-tetrahydro-1H-cyclopenta[b][1,6]naphthyridine-1,9(2H)-dione] as the compound, how does the AC50 read?
A: 18.4 µM

Q: What about the Emax of the same compound?
A: 157%

Q: With `Cc1cc2c(s1)c(=O)c1c(=O)n(-c3ccccc3)c(C3CCC3)cc1n2C` [Example 1.36, 6-cyclobutyl-2,4-dimethyl-7-phenylthieno[3,2-b][1,6]naphthyridine-8,9(4H,7H)-dione] as the compound, how does the AC50 read?
A: 4.1 µM

Q: And the Emax?
A: 177%

Q: How did the AC50 turn out when `O=c1c2c([nH]c3cc(C4CCC4)n(-c4ccccc4)c(=O)c13)CCCC2` [Example 1.30, 3-cyclobutyl-2-phenyl-6,7,8,9-tetrahydrobenzo[b][1,6]naphthyridine-1,10(2H,5H)-dione] was run?
A: 0.7 µM

Q: And the Emax?
A: 324%

Q: Which results are given for `CC(C)c1cc2c(c(=O)c3ccsc3n2C)c(=O)n1C1CCCC1` [Example 2.16, 6-cyclopentyl-7-isopropyl-9-methylthieno[2,3-b][1,6]naphthyridine-4,5(6H,9H)-dione]?
A: AC50: 1.2 µM; Emax: 279%

Q: Which EC50 (clone pursued for HTS assay development, read-out: EC50 (response of selected clone, aminoglycoside mediated readthrough)) does the source give for `NC[C@@H]1O[C@H](O[C@H]2[C@@H](O)[C@H](O[C@@H]3[C@@H](O)[C@H](N)C[C@H](N)[C@H]3O[C@H]3O[C@H](CO)[C@@H](O)[C@H](O)[C@H]3N)O[C@@H]2CO)[C@H](N)[C@@H](O)[C@@H]1O` [paromomycin, reference compound] here?
A: 1500 µM

Q: For `CC(C)c1cc2[nH]c3sccc3c(=O)c2c(=O)n1C1CCCC1` [Example 2.15, 6-cyclopentyl-7-isopropylthieno[2,3-b][1,6]naphthyridine-4,5(6H,9H)-dione], which Emax is on record?
A: 124%

Q: With `Cc1csc2c(=O)c3c(=O)n(-c4ccccc4)c(C(C)C)cc3[nH]c12` [Example 1.20, 6-isopropyl-3-methyl-7-phenylthieno[3,2-b][1,6]naphthyridine-8,9(4H,7H)-dione] as the compound, how does the AC50 read?
A: 2.5 µM

Q: And the Emax?
A: 183%

Q: How did the AC50 turn out when `CC(C)c1cc2c(c(=O)c3ccccc3n2C)c(=O)n1N1CCCC1` [Example 2.12, 3-isopropyl-5-methyl-2-(pyrrolidin-1-yl)benzo[b][1,6]naphthyridine-1,10(2H,5H)-dione] was run?
A: 1.7 µM

Q: And the Emax?
A: 178%

Q: With `CC(C)c1cc2[nH]c3ccccc3c(=O)c2c(=O)n1C1CCCC1` [Example 2.3, 2-cyclopentyl-3-isopropylbenzo[b][1,6]naphthyridine-1,10(2H,5H)-dione] as the compound, how does the AC50 read?
A: 0.4 µM

Q: What about the Emax of the same compound?
A: 235%

Q: With `CC(C)c1cc2c(c(=O)c3ccccc3n2C)c(=O)n1-c1ccccc1` [Example 1.4, 3-isopropyl-5-methyl-2-phenylbenzo[b][1,6]naphthyridine-1,10(2H,5H)-dione] as the compound, how does the AC50 read?
A: 3.2 µM

Q: And the Emax?
A: 324%

Q: For `Cn1c2c(c(=O)c3c(=O)n(-c4ccccc4)c(C4CCC4)cc31)CCCC2` [Example 1.28, 3-cyclobutyl-5-methyl-2-phenyl-6,7,8,9-tetrahydrobenzo[b][1,6]naphthyridine-1,10(2H,5H)-dione], which AC50 is on record?
A: 12.8 µM

Q: What about the Emax of the same compound?
A: 257%

Q: `CC(C)c1cc2c(c(=O)c3cccc4c3n2CC4)c(=O)n1-c1ccccc1` [Example 1.11, 9-isopropyl-8-phenyl-1H-indolo[1,7-ab][1,6]naphthyridine-6,7(2H,8H)-dione] was tested. Which AC50 did it give?
A: 4 µM

Q: What about the Emax of the same compound?
A: 276%

Q: With `CC(C)c1cc2c(c(=O)c3cc(F)ccc3n2C)c(=O)n1-c1ccccc1` [Example 1.6, 8-fluoro-3-isopropyl-5-methyl-2-phenylbenzo[b][1,6]naphthyridine-1,10(2H,5H)-dione] as the compound, how does the AC50 read?
A: 7.7 µM

Q: What about the Emax of the same compound?
A: 507%

Q: Which Emax does the source give for `Cc1cc2c(=O)c3c(=O)n(-c4ccccc4)c(C(C)C)cc3[nH]c2s1` [Example 1.14, 7-isopropyl-2-methyl-6-phenylthieno[2,3-b][1,6]naphthyridine-4,5(6H,9H)-dione] here?
A: 35%

Q: For `Cc1cc2[nH]c3cc(C4CCC4)n(-c4ccccc4)c(=O)c3c(=O)c2s1` [Example 1.37, 6-cyclobutyl-2-methyl-7-phenylthieno[3,2-b][1,6]naphthyridine-8,9(4H,7H)-dione], which AC50 is on record?
A: 1.4 µM

Q: What about the Emax of the same compound?
A: 164%

Q: With `CC(C)c1cc2c(c(=O)c3ccccc3n2C)c(=O)n1C1CCCC1` [Example 2.4, 2-cyclopentyl-3-isopropyl-5-methylbenzo[b][1,6]naphthyridine-1,10(2H,5H)-dione] as the compound, how does the AC50 read?
A: 1.8 µM

Q: And the Emax?
A: 274%

Q: Which results are given for `CC(C)c1cc2c(c(=O)c3cc(O)ccc3n2C)c(=O)n1-c1ccccc1` [Example 1.51, 8-hydroxy-3-isopropyl-5-methyl-2-phenylbenzo[b][1,6]naphthyridine-1,10(2H,5H)-dione]?
A: AC50: 16.5 µM; Emax: 144%
